pEC50, pIC50: −log10 of the molar value.
Tests used:
[1] = biological target: PD-1/PD-L1 (Homo sapiens, UniProt Q9NZQ7); assay: PD-1/PD-L1 biochemical protein-protein interaction assay (ALPHA); assay type: binding; settings: 0.3 nM His tagged PD-L1, 2.5 nM biotinylated Fc-PD-1, 60 minutes at 25° C., read-out: IC50 PD-L1-PD-1 Alpha IC50-mono PD-L1-fcP-D1
Method in brief: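 Bead proximity read-out: compound-driven loss of ALPHA signal between anti-His acceptor and streptavidin donor beads (20 μg/mL acceptor). Proteins: 0.3 nM His-PD-L1, 2.5 nM biotin-Fc-PD-1, final. 60 min, 25° C, Hepes pH 7.4 buffer. IC50 via four-parameter dose-response fit.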

[2] = biological target: T1, PD-1/PD-L1 interaction (Homo sapiens, UniProt Q9NZQ7); assay: PD-1/PD-L1 NFAT reporter co-culture assay; assay type: cell-based; settings: Jurkat PD-1 NFAT-luciferase cells co-cultured with aAPC-PD-L1 CHO cells, 6 hrs at 37° C.; read-out: EC50 NFAT Luciferase
T1 construct: expressed in transfected cells; host or cells: CHO cells (aAPC-PD-L1) co-cultured with Jurkat cells overexpressing PD-1 and an NFAT-luciferase reporter
Method in brief: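 Restoration of TCR-driven NFAT luciferase signal: 6 h, 37 °C co-culture of PD-1 Jurkat reporter cells (pre-mixed with compound) on overnight-seeded PD-L1/anti-CD3 CHO monolayer. ONE-Glo luminescence; dose-response fitted to four-parameter equation for EC50.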

[3] = biological target: T2, PD-L1 (Homo sapiens, UniProt Q9NZQ7); assay: PD-L1/PD-L1 dimerization biochemical protein-protein interaction assay (ALPHA); assay type: binding; settings: compound-induced PD-L1 dimerization, head prints '1 nM' (0.5 nM His-tagged PD-L1 and 0.5 nM FLAG-tagged PD-L1), read-out: AC50 PDL1 Dimer Alpha 1 nM
T2 construct: determine if they can specifically dimerize the extracellular domains of PD-L1
Method in brief: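 After 2 h at 25 °C with compound, His- and FLAG-tagged PD-L1 ECDs (each 0.5 nM final; 25 mM Hepes pH 7.4, 150 mM NaCl) were detected by sequential anti-His acceptor and anti-FLAG donor bead incubations. Dose-response curves fitted to four-parameter equation for AC50.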

T1 sequence (Q9NZQ7 19-290): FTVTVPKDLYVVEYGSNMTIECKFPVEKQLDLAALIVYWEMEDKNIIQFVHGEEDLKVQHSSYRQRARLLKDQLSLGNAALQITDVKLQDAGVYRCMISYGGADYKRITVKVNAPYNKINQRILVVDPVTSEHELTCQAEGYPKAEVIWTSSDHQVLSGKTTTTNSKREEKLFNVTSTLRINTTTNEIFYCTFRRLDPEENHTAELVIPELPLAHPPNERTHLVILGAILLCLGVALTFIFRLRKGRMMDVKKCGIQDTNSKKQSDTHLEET
Chain of PD-1/PD-L1 (Q9NZQ7 19-238 limits assumed): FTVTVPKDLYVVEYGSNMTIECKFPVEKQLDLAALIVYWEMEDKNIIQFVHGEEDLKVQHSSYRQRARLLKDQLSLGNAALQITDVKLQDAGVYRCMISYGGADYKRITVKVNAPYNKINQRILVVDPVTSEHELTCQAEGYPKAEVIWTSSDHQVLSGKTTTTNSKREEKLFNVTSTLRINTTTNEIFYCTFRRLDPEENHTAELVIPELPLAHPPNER
T2 sequence (Q9NZQ7 19-238 limits assumed): as above
T2 sequence (Q9NZQ7 19-238 limits assumed): as above

pIC50 [1] | pEC50 [2] | AC50 [3] | SMILES
10.19 | 7.39 | 35.1 nM | COc1nc(O[C@H]2CCc3c(-c4cccc(-c5ccc(CNC[C@@H]6CCC(=O)N6)cc5)c4Cl)cccc32)c(Cl)cc1CN1CC[C@H](C(=O)O)C1 [Example 723]
10.19 | 6.92 | 21.2 nM | COc1nc(O[C@H]2CCc3c(-c4cccc(-c5ccc(CNC[C@@H]6CCC(=O)N6)cc5)c4Cl)cccc32)c(Cl)cc1CN1CCC[C@@H]1C(=O)O [Example 724]
10.19 | 7.06 | 14.3 nM | COc1nc(O[C@H]2CCc3c(-c4cccc(-c5ccc(CNC[C@@H]6CCC(=O)N6)cc5)c4Cl)cccc32)c(Cl)cc1CN1CCC[C@H]1C(=O)O [Example 725]
9.90 | 7.12 | 81.9 nM | COc1nc(-c2cccc(-c3cccc4c3CC[C@@H]4Oc3nc(OC)c(CN4CC5(CCC(=O)N5)C4)cc3Cl)c2Cl)ccc1CNC[C@@H]1CCC(=O)N1 [Example 726]
10.19 | 7.57 | 15.8 nM | COc1nc(-c2cccc(-c3cccc4c3CC[C@@H]4Oc3nc(OC)c(CN[C@@](C)(CO)C(=O)O)cc3Cl)c2Cl)ccc1CNC[C@@H]1CCC(=O)N1 [Example 727]
10.19 | 7.60 | 15 nM | COc1nc(-c2cccc(-c3cccc4c3CC[C@@H]4Oc3nc(OC)c(CNC[C@@H](O)CC(=O)O)cc3Cl)c2Cl)ccc1CNC[C@@H]1CCC(=O)N1 [Example 728]
9.03 | 6.19 | 49 nM | COc1nc(O[C@H]2CCc3c(-c4cccc(-c5ccc(CNC[C@@H]6CCC(=O)N6)cc5)c4Cl)cccc32)c(Cl)cc1CN1CC2(CCC(=O)N2)C1 [Example 729]
9.13 | 7.00 | 40.7 nM | COc1nc(O[C@H]2CCc3c(-c4cccc(-c5ccc(CNC[C@@H]6CCC(=O)N6)cc5)c4Cl)cccc32)c(Cl)cc1CNC[C@@H]1CCC(=O)N1 [Example 730]
10.19 | 7.59 | 16 nM | COc1nc(O[C@H]2CCc3c(-c4cccc(-c5ccc(CNC[C@@H]6CCC(=O)N6)cc5)c4Cl)cccc32)c(Cl)cc1CN[C@@](C)(CO)C(=O)O [Example 731]
10.13 | 7.85 | 2.69 nM | COc1nc(O[C@H]2CCc3c(-c4cccc(-c5ccc(CNC[C@@H]6CCC(=O)N6)cc5)c4Cl)cccc32)c(Cl)cc1CNC[C@@H](O)CC(=O)O [Example 732]
9.65 | 6.92 | 129 nM | COc1nc(-c2cccc(-c3cccc4c3CC[C@@H]4Oc3nc(OC)c(CN4CC5(CCC(=O)N5)C4)cc3Cl)c2Cl)ccc1CN1CC2(CCC(=O)N2)C1 [Example 733]
9.33 | 7.44 | 46 nM | COc1nc(-c2cccc(-c3cccc4c3CC[C@@H]4Oc3nc(OC)c(CNC[C@@H]4CCC(=O)N4)cc3Cl)c2Cl)ccc1CNC[C@@H]1CCC(=O)N1 [Example 734]
9.46 | 7.02 | 104 nM | COc1nc(-c2cccc(-c3cccc4c3CC[C@@H]4Oc3nc(OC)c(CN4CC5(CCC(=O)N5)C4)cc3Br)c2Cl)ccc1CN1CC2(CCC(=O)N2)C1 [Example 735]
9.82 | 7.66 | 18.4 nM | COc1nc(-c2cccc(-c3cccc4c3CC[C@@H]4Oc3nc(OC)c(CNC[C@@H]4CCC(=O)N4)cc3Br)c2Cl)ccc1CNC[C@@H]1CCC(=O)N1 [Example 736]
10.19 | 7.10 | 8.23 nM | C[C@@](CO)(NCc1cc(Br)c(O[C@H]2CCc3c(-c4cccc(-c5ccc(C6=NCCN6)cc5)c4Cl)cccc32)nc1OCc1cncc(C#N)c1)C(=O)O [Example 737]
10.19 | 7.14 | 8.06 nM | C[C@@](CO)(NCc1cc(Cl)c(O[C@H]2CCc3c(-c4cccc(-c5ccc(C6=NCCN6)cc5)c4Cl)cccc32)nc1OCc1cncc(C#N)c1)C(=O)O [Example 738]

pIC50 [1] | pEC50 [2] | AC50 [3] | SMILES
10.19 | 6.54 | 53.6 nM | C[C@@](CO)(NCc1ccc(O[C@H]2CCc3c(-c4cccc(-c5ccc(C6=NCCN6)cc5)c4Cl)cccc32)nc1OCc1cncc(C#N)c1)C(=O)O [Example 740]
10.19 | 7.92 | 3.1 nM | C[C@@](CO)(NCc1cc(Br)c(O[C@H]2CCc3c(-c4cccc(-c5ccc(CNC[C@@H]6CCC(=O)N6)cc5)c4Cl)cccc32)nc1OCc1cncc(C#N)c1)C(=O)O [Example 741]
10.19 | 7.49 | 42 nM | C[C@@](CO)(NCc1ccc(O[C@H]2CCc3c(-c4cccc(-c5ccc(CNC[C@@H]6CCC(=O)N6)cc5)c4Cl)cccc32)nc1OCc1cncc(C#N)c1)C(=O)O [Example 742]
9.51 | 7.30 | 82.2 nM | COC(=O)[C@@](C)(CO)NCc1cc(Br)c(O[C@H]2CCc3c(-c4cccc(-c5ccc(CNC[C@@H]6CCC(=O)N6)c(OC)n5)c4Cl)cccc32)nc1OCc1cncc(C#N)c1 [Example 743]
10.19 | 7.36 | 9.53 nM | COc1nc(-c2cccc(-c3cccc4c3CC[C@@H]4Oc3nc(OCc4cncc(C#N)c4)c(CN[C@@](C)(CO)C(=O)O)cc3Br)c2Cl)ccc1C1=NCCN1 [Example 744]
10.19 | 6.95 | 19.2 nM | COc1nc(-c2cccc(-c3cccc4c3CC[C@@H]4Oc3nc(OCc4cncc(C#N)c4)c(CN[C@@](C)(CO)C(=O)O)cc3Cl)c2Cl)ccc1C1=NCCN1 [Example 745]
10.19 | 6.84 | 104 nM | COc1nc(-c2cccc(-c3cccc4c3CC[C@@H]4Oc3ccc(CN[C@@](C)(CO)C(=O)O)c(OCc4cncc(C#N)c4)n3)c2Cl)ccc1C1=NCCN1 [Example 746]
10.19 | 8.00 | 5.36 nM | COc1nc(-c2cccc(-c3cccc4c3CC[C@@H]4Oc3nc(OCc4cncc(C#N)c4)c(CN[C@@](C)(CO)C(=O)O)cc3Br)c2Cl)ccc1CNC[C@@H]1CCC(=O)N1 [Example 747]
10.19 | 7.62 | 10.1 nM | COc1nc(-c2cccc(-c3cccc4c3CC[C@@H]4Oc3nc(OCc4cncc(C#N)c4)c(CN[C@@](C)(CO)C(=O)O)cc3Br)c2C)ccc1C1=NCCN1 [Example 748]
10.19 | 7.11 | 16.8 nM | COc1nc(-c2cccc(-c3cccc4c3CC[C@@H]4Oc3nc(OCc4cncc(C#N)c4)c(CN[C@@](C)(CO)C(=O)O)cc3Cl)c2C)ccc1C1=NCCN1 [Example 749]
10.19 | 6.65 | 72.1 nM | COc1nc(-c2cccc(-c3cccc4c3CC[C@@H]4Oc3ccc(CN[C@@](C)(CO)C(=O)O)c(OCc4cncc(C#N)c4)n3)c2C)ccc1C1=NCCN1 [Example 750]
8.35 | 6.45 | 182 nM | N#Cc1cncc(COc2nc(O[C@H]3CCc4c(-c5cccc6c5CC[C@@H]6Oc5nc(OCc6cncc(C#N)c6)c(CNCCO)cc5Br)cccc43)c(Br)cc2CNCCO)c1 [Example 751]
9.11 | 6.33 | 82.5 nM | N#Cc1cncc(COc2nc(O[C@H]3CCc4c(-c5cccc6c5CC[C@@H]6Oc5nc(OCc6cncc(C#N)c6)c(C6=NCCN6)cc5Br)cccc43)c(Br)cc2C2=NCCN2)c1 [Example 752]
9.81 | 6.86 | 39.2 nM | Cc1c(-c2ccc(OCCNC[C@@H](O)CC(=O)O)cc2)cccc1-c1cccc2c1CC[C@@H]2Oc1nc(OCc2cccc(C#N)c2)c(CNC[C@@H](O)CC(=O)O)cc1Br [Example 755]
10.19 | 7.82 | 17.6 nM | COc1nc(-c2cccc(-c3cccc4c3CC[C@@H]4Oc3nc(OC)c(CN4CC(C(=O)O)C4)cc3Cl)c2Cl)ccc1CNC[C@@H]1CCC(=O)N1 [Example 757]
